The results in this text go back to patent US12091411B2, “IRAK degraders and uses thereof” (Kymera Therapeutics, Inc., priority 2022, dated 2024).

Like-named read-outs stand apart in the source and are kept apart here.

In this experiment the target is T1, IRAK4 (Homo sapiens, UniProt Q9NWZ3).
T1 construct: Degradation of IRAK4 in OCI-LY10 was quantitatively measured using Meso Scale Discovery technology; endogenous in cells; host or cells: OCI-LY10
T1 sequence (Q9NWZ3 1-460): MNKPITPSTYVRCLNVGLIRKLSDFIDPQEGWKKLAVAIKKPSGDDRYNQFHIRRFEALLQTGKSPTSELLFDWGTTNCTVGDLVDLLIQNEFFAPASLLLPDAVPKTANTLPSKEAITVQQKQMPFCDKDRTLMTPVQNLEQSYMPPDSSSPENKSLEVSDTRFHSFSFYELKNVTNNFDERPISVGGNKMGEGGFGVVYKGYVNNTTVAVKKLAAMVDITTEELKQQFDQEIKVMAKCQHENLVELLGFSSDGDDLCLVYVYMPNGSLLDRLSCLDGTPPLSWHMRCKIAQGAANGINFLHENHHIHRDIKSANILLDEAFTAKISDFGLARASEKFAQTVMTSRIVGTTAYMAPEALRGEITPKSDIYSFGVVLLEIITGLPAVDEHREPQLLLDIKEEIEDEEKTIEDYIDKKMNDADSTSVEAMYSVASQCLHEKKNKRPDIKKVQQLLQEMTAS
Nature of the experiment: IRAK4 MSD Degradation in OCI-LY10. The class given is cell-based. Conditions: OCI-LY10 cells, MSD. In short, it runs like this: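 OCI-LY10 cells exposed to 8-point 1:3 compound series (top 1 to 10 μM) for 4 to 24 h at 37 °C, 5% CO2. Lysate IRAK4 quantified by MSD sandwich immunoassay. DC50 from three-parameter logistic fit, binned A (<0.01 μM) to D (>0.2 μM or not tested).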

[1] abbreviates: 4 hrs incubation, read-out: IRAK4 degradation in OCI-LY10 at 4 hrs: DC50.
Setting [2] is: 24 hrs incubation, read-out: IRAK4 degradation in OCI-LY10 at 24 hrs: DC50.

By DC50 is commonly meant the concentration giving 50% degradation. On to `COc1cc2nn([C@H]3CC[C@H](CN4CCC5(CC4)CCN(c4cccc6c4n(C)c(=O)n6C4CCC(=O)NC4=O)CC5)CC3)cc2cc1NC(=O)c1cc(F)cc(C#N)c1` (stereo partly shown) [I-247], for which the 50% degradation concentration (DC50) under setting [1] is > 200 nM and the half-maximal degradation concentration (DC50) under setting [2] was < 10 nM.
For `O=C1CCC(c2cccc3c(C#CCOC4CCN(C[C@H]5CC[C@H](n6cc(NC(=O)c7cnn8ccc(N9C[C@H]%10C[C@@H]9CO%10)nc78)c(C(F)F)n6)CC5)CC4)cccc23)C(=O)N1` (stereo partly shown) [I-248], in that order: > 200 nM and 10 to 100 nM.
In the case of `O=C1CCC(c2cncc3c(C#CCOC4CCN(C[C@H]5CC[C@H](n6cc(NC(=O)c7cnn8ccc(N9C[C@H]%10C[C@@H]9CO%10)nc78)c(C(F)F)n6)CC5)CC4)cccc23)C(=O)N1` (stereo partly shown) [I-249], the DC50 reads like this: under setting [1], > 200 nM; under setting [2], > 200 nM.
For `O=C1CCC(c2cccc3c(C#CCN4CCN(C[C@H]5CC[C@@H](n6cc(NC(=O)c7cnn8ccc(N9C[C@H]%10C[C@@H]9CO%10)nc78)c(C(F)F)n6)CC5)CC4)cccc23)C(=O)N1` (stereo partly shown) [I-250], the half-maximal degradation concentration (DC50) was > 200 nM under setting [1] and 10 to 100 nM under setting [2].
As to `O=C1CCC(c2cncc3c(C#CCN4CCN(C[C@H]5CC[C@@H](n6cc(NC(=O)c7cnn8ccc(N9C[C@H]%10C[C@@H]9CO%10)nc78)c(C(F)F)n6)CC5)CC4)cccc23)C(=O)N1` (stereo partly shown) [I-251], the half-maximal degradation concentration (DC50) under setting [1] is > 200 nM and the half-maximal degradation concentration (DC50) under setting [2] was > 200 nM.
On to `COc1cc2nn([C@H]3CC[C@H](CN4CCC5(CC4)CCN(c4cccc6c(C7CCC(=O)NC7=O)cccc46)CC5)CC3)cc2cc1NC(=O)c1cncc(C#N)c1` (stereo partly shown) [I-252], for which the 50% degradation concentration (DC50) is > 200 nM under setting [1] and 10 to 100 nM under setting [2].
On to `COc1cc2nn([C@H]3CC[C@H](CN4CCC5(CC4)CCN(c4cccc6c(C7CCC(=O)NC7=O)cncc46)CC5)CC3)cc2cc1NC(=O)c1cncc(C#N)c1` (stereo partly shown) [I-253], for which the DC50 was > 200 nM under setting [1] and > 200 nM under setting [2].
As to `COc1cc2nn([C@H]3CC[C@H](CN4CCC5(CC4)CCN(c4ccc(Cl)c(N6CCC(=O)NC6=O)c4)CC5)CC3)cc2cc1NC(=O)c1cncc(C#N)c1` [I-254], the DC50 reads like this: under setting [1], > 200 nM; under setting [2], > 200 nM.
Turning to `COc1cc2nn([C@H]3CC[C@H](CN4CCC5(CC4)CCN(c4ccc(Cl)c(C6CCC(=O)NC6=O)c4)CC5)CC3)cc2cc1NC(=O)c1cncc(C#N)c1` (stereo partly shown) [I-255], the 50% degradation concentration (DC50) runs as follows: under setting [1], > 200 nM; under setting [2], > 200 nM.
As for `O=C1CCN(c2cc(C#CCOC3CCN(C[C@H]4CC[C@H](n5cc(NC(=O)c6cnn7ccc(N8C[C@H]9C[C@@H]8CO9)nc67)c(C(F)F)n5)CC4)CC3)ccc2Cl)C(=O)N1` [I-256], the DC50 by setting is: under setting [1], > 200 nM; under setting [2], > 200 nM.
As to `O=C1CCC(c2cc(C#CCOC3CCN(C[C@H]4CC[C@H](n5cc(NC(=O)c6cnn7ccc(N8C[C@H]9C[C@@H]8CO9)nc67)c(C(F)F)n5)CC4)CC3)ccc2Cl)C(=O)N1` (stereo partly shown) [I-257], the DC50 is, setting by setting: under setting [1], > 200 nM; under setting [2], > 200 nM.
Consider `O=C1CCN(c2cc(C#CCN3CCN(C[C@H]4CC[C@@H](n5cc(NC(=O)c6cnn7ccc(N8C[C@H]9C[C@@H]8CO9)nc67)c(C(F)F)n5)CC4)CC3)ccc2Cl)C(=O)N1` [I-258], for which the DC50 runs as follows: under setting [1], > 200 nM; under setting [2], > 200 nM.
With `O=C1CCC(c2cc(C#CCN3CCN(C[C@H]4CC[C@@H](n5cc(NC(=O)c6cnn7ccc(N8C[C@H]9C[C@@H]8CO9)nc67)c(C(F)F)n5)CC4)CC3)ccc2Cl)C(=O)N1` (stereo partly shown) [I-259], the half-maximal degradation concentration (DC50) reads like this: under setting [1], > 200 nM; under setting [2], > 200 nM.
`Cn1c(=O)n(C2CCC(=O)NC2=O)c2cccc(C#CCOC3CCN(C[C@H]4CC[C@H](n5cc(NC(=O)c6cccc(C#N)n6)c(C(F)F)n5)CC4)CC3)c21` (stereo partly shown) [I-260]: the DC50 is, setting by setting: under setting [1], > 200 nM; under setting [2], > 200 nM.
As to `Cn1c(=O)n(C2CCC(=O)NC2=O)c2cccc(C#CCN3CCN(C[C@H]4CC[C@H](n5cc(NC(=O)c6cccc(C#N)n6)c(C(F)F)n5)CC4)CC3)c21` (stereo partly shown) [I-261], the DC50 under setting [1] was > 200 nM and the DC50 under setting [2] is > 200 nM.
Consider `Cn1c(=O)n(C2CCC(=O)NC2=O)c2cccc(C#CCOC3CCN(C[C@H]4CC[C@H](n5cc(NC(=O)c6cccc(C#N)n6)c(C(C)(C)O)n5)CC4)CC3)c21` (stereo partly shown) [I-262], for which the DC50 by setting is: under setting [1], > 200 nM; under setting [2], > 200 nM.
As to `Cn1c(=O)n(C2CCC(=O)NC2=O)c2cccc(C#CCN3CCN(C[C@H]4CC[C@H](n5cc(NC(=O)c6cccc(C#N)n6)c(C(C)(C)O)n5)CC4)CC3)c21` (stereo partly shown) [I-263], the DC50 reads like this: under setting [1], > 200 nM; under setting [2], > 200 nM.
As for `Cn1c(=O)n(C2CCC(=O)NC2=O)c2cccc(C#CCOC3CCN(C[C@H]4CC[C@H](n5cc(NC(=O)c6cncc(C#N)c6)c(C(F)F)n5)CC4)CC3)c21` (stereo partly shown) [I-264], the DC50 was > 200 nM under setting [1] and > 200 nM under setting [2].
As for `Cn1c(=O)n(C2CCC(=O)NC2=O)c2cccc(C#CCN3CCN(C[C@H]4CC[C@H](n5cc(NC(=O)c6cncc(C#N)c6)c(C(F)F)n5)CC4)CC3)c21` (stereo partly shown) [I-265], the half-maximal degradation concentration (DC50) reads like this: under setting [1], > 200 nM; under setting [2], > 200 nM.
Regarding `Cn1c(=O)n(C2CCC(=O)NC2=O)c2cccc(C#CCOC3CCN(C[C@H]4CC[C@H](n5cc(NC(=O)c6cncc(C#N)c6)c(C(C)(C)O)n5)CC4)CC3)c21` (stereo partly shown) [I-266], the DC50 reads like this: under setting [1], > 200 nM; under setting [2], > 200 nM.
On to `Cn1c(=O)n(C2CCC(=O)NC2=O)c2cccc(C#CCN3CCN(C[C@H]4CC[C@H](n5cc(NC(=O)c6cncc(C#N)c6)c(C(C)(C)O)n5)CC4)CC3)c21` (stereo partly shown) [I-267], for which the DC50 reads like this: under setting [1], > 200 nM; under setting [2], > 200 nM.
`Cc1ccc(-c2nn([C@H]3CC[C@H](CN4CCC(OCC#Cc5cccc6c5n(C)c(=O)n6C5CCC(=O)NC5=O)CC4)CC3)cc2NC(=O)c2cncc(C#N)c2)nc1` (stereo partly shown) [I-268]: the DC50 by setting is: under setting [1], > 200 nM; under setting [2], > 200 nM.
Turning to `Cc1ccc(-c2nn([C@H]3CC[C@H](CN4CCN(CC#Cc5cccc6c5n(C)c(=O)n6C5CCC(=O)NC5=O)CC4)CC3)cc2NC(=O)c2cncc(C#N)c2)nc1` (stereo partly shown) [I-269], the DC50 by setting is: under setting [1], > 200 nM; under setting [2], > 200 nM.
`CN(C[C@H]1CC[C@H](n2cc(CC(=O)c3cnn4ccc(N5CCC(C)(C)CC5)nc34)c(C(F)F)n2)CC1)C1CCN(c2cccc3c2n(C)c(=O)n3C2CCC(=O)NC2=O)CC1` (stereo partly shown) [I-270]: the DC50 by setting is: under setting [1], > 200 nM; under setting [2], 10 to 100 nM.
For the compound `CC1CCN(c2ccn3ncc(C(=O)Nc4cn([C@H]5CC[C@H](CN(C)C6CCN(c7cccc8c7n(C)c(=O)n8C7CCC(=O)NC7=O)CC6)CC5)nc4C(F)F)c3n2)CC1` (stereo partly shown) [I-271], the half-maximal degradation concentration (DC50) was > 200 nM under setting [1] and < 10 nM under setting [2].
For `CN(C[C@H]1CC[C@H](n2cc(NC(=O)c3cnn4ccc(N5CCC6(CC5)CC6)nc34)c(C(F)F)n2)CC1)C1CCN(c2cccc3c2n(C)c(=O)n3C2CCC(=O)NC2=O)CC1` (stereo partly shown) [I-272], in that order: > 200 nM and < 10 nM.
For `CN(C[C@H]1CC[C@H](n2cc(NC(=O)c3cnn4ccc(N5CCC(F)(F)CC5)nc34)c(C(F)F)n2)CC1)C1CCN(c2cccc3c2n(C)c(=O)n3C2CCC(=O)NC2=O)CC1` (stereo partly shown) [I-273], in that order: > 200 nM and < 10 nM.
As for `CN(C[C@H]1CC[C@H](n2cc(NC(=O)c3cnn4ccc(N5CC6(CC6)C5)nc34)c(C(F)F)n2)CC1)C1CCN(c2cccc3c2n(C)c(=O)n3C2CCC(=O)NC2=O)CC1` (stereo partly shown) [I-274], the 50% degradation concentration (DC50) reads like this: under setting [1], > 200 nM; under setting [2], < 10 nM.
For `CN(C[C@H]1CC[C@H](n2cc(NC(=O)c3cnn4ccc(N5CC(C)(C)C5)nc34)c(C(F)F)n2)CC1)C1CCN(c2cccc3c2n(C)c(=O)n3C2CCC(=O)NC2=O)CC1` (stereo partly shown) [I-275], in that order: > 200 nM and < 10 nM.
With `CN(C[C@H]1CC[C@H](n2cc(NC(=O)c3cnn4ccc(N5CC(F)(F)C5)nc34)c(C(F)F)n2)CC1)C1CCN(c2cccc3c2n(C)c(=O)n3C2CCC(=O)NC2=O)CC1` (stereo partly shown) [I-276], the DC50 by setting is: under setting [1], > 200 nM; under setting [2], < 10 nM.
For `CN(C[C@H]1CC[C@H](n2cc(NC(=O)c3cnn4ccc(N5CCC5)nc34)c(C(F)F)n2)CC1)C1CCN(c2cccc3c2n(C)c(=O)n3C2CCC(=O)NC2=O)CC1` (stereo partly shown) [I-277], in that order: > 200 nM and < 10 nM.
For `CN(C[C@H]1CC[C@H](n2cc(NC(=O)c3cnn4ccc(N5CCCC5)nc34)c(C(F)F)n2)CC1)C1CCN(c2cccc3c2n(C)c(=O)n3C2CCC(=O)NC2=O)CC1` (stereo partly shown) [I-278], in that order: > 200 nM and < 10 nM.
The corresponding values for `Cn1c(=O)n(C2CCC(=O)NC2=O)c2cccc(C#CCN3CCN(C[C@H]4CC[C@H](n5cc(NC(=O)c6cnn7ccc(N8C[C@H]9C[C@@H]8CO9)nc67)c(C(C)(C)O)n5)CC4)CC3)c21` (stereo partly shown) [I-279] are > 200 nM and > 200 nM.
As to `Cn1c(=O)n(C2CCC(=O)NC2=O)c2cccc(C#CCOC3CCN(C[C@H]4CC[C@H](n5cc(NC(=O)c6cnn7ccc(N8C[C@H]9C[C@@H]8CO9)nc67)c(F)n5)CC4)CC3)c21` (stereo partly shown) [I-280], the half-maximal degradation concentration (DC50) is > 200 nM under setting [1] and > 200 nM under setting [2].
With `Cn1c(=O)n(C2CCC(=O)NC2=O)c2cccc(C#CCN3CCN(C[C@H]4CC[C@H](n5cc(NC(=O)c6cnn7ccc(N8C[C@H]9C[C@@H]8CO9)nc67)c(F)n5)CC4)CC3)c21` (stereo partly shown) [I-281], the DC50 runs as follows: under setting [1], > 200 nM; under setting [2], > 200 nM.
